Legend:
Type in all cases: functional, Homo sapiens
Set-up in all cases: dose or concentration left out as unconfirmed
[1] = system: Colon cancer organoid; assay: Identification of compartment-specific drug sensitivities in O20 CRC organoid-stroma F20 CAF co-cultures. Organoid is transduced with Lucferase2-P2A-EGFP lentivirus, fibroblast with Renilla-dsRed lentivirus. Dual-Glo Luciferase assay is used to report viability data.
[2] = system: Colon cancer organoid; assay: Identification of compartment-specific drug sensitivities in O14 CRC organoid-stroma F14 CAF co-cultures. Organoid is transduced with Lucferase2-P2A-EGFP lentivirus, fibroblast with Renilla-dsRed lentivirus. Dual-Glo Luciferase assay is used to report viability data.
[3] = system: Colon cancer organoid; assay: Identification of compartment-specific drug sensitivities in O06 CRC organoid-stroma F06 CAF co-cultures. Organoid is transduced with Lucferase2-P2A-EGFP lentivirus, fibroblast with Renilla-dsRed lentivirus. Dual-Glo Luciferase assay is used to report viability data.
[4] = Transduced with Lucferase2-P2A-EGFP lentivirus
[5] = Transduced with Renilla-dsRed lentivirus

Cc1c(NC(=O)COc2ccc(Cl)cc2C(=O)c2cc(F)cc(C(F)(F)F)c2)ccc(C(=O)O)c1F [BI 2540]
Cell Viability [1, 4]: 66.158%
Cell Viability [1, 5]: 145.555%
Cell Viability [2, 4]: 85.0828%
Cell Viability [2, 5]: 72.3222%
Cell Viability [3, 4]: 104.073%
Cell Viability [3, 5]: 125.125%

COc1ccccc1-c1cc(N2CCN(C(=O)OC(C)(C)C)CC2)c(N)nn1
Cell Viability [1, 4]: 123.55%
Cell Viability [1, 5]: 160.936%
Cell Viability [2, 4]: 120.209%
Cell Viability [2, 5]: 94.5585%
Cell Viability [3, 4]: 99.4085%
Cell Viability [3, 5]: 102.712%

CCN1CCN(c2ccc(Nc3cc(N(C)C(=O)Nc4c(Cl)c(OC)cc(OC)c4Cl)ncn3)cc2)CC1 [INFIGRATINIB]
Cell Viability [1, 4]: 101.232%
Cell Viability [1, 5]: 52.242%
Cell Viability [2, 4]: 55.6946%
Cell Viability [2, 5]: 110.833%
Cell Viability [3, 4]: 0.6967%
Cell Viability [3, 5]: 125.024%

Cn1cnc2c(F)c(Nc3ccc(Br)cc3Cl)c(C(=O)NOCCO)cc21 [SELUMETINIB]
Cell Viability [1, 4]: 54.0546%
Cell Viability [1, 5]: 152.417%
Cell Viability [2, 4]: 44.7701%
Cell Viability [2, 5]: 55.8657%
Cell Viability [3, 4]: 99.2613%
Cell Viability [3, 5]: 98.6384%

COc1ccc(COc2ccc(Cc3cnc(N)nc3N)cc2OC)cc1 [GW632580X]
Cell Viability [1, 4]: 200.298%
Cell Viability [1, 5]: 84.9331%
Cell Viability [2, 4]: 144.194%
Cell Viability [2, 5]: 102.086%
Cell Viability [3, 4]: 84.8428%
Cell Viability [3, 5]: 83.7807%

CN(C)C(=O)c1cc2cnc(Nc3ccc(N4CCNCC4)cn3)nc2n1C1CCCC1 [RIBOCICLIB]
Cell Viability [1, 4]: 36.7036%
Cell Viability [1, 5]: 144.514%
Cell Viability [2, 4]: 43.0147%
Cell Viability [2, 5]: 103.263%
Cell Viability [3, 4]: 54.2961%
Cell Viability [3, 5]: 126.231%

Cn1cc(CNCC2CCN(c3ncc(C(=O)NO)cn3)CC2)c2ccccc21 [QUISINOSTAT]
Cell Viability [1, 4]: 1.348%
Cell Viability [1, 5]: 37.1921%
Cell Viability [2, 4]: 6.037%
Cell Viability [2, 5]: 54.4916%
Cell Viability [3, 4]: 1.095%
Cell Viability [3, 5]: 190.694%

CCC(F)(F)c1cc(N2CCC(S(C)(=O)=O)CC2)nc2sc(C(N)=O)c(N)c12 [BI-605906]
Cell Viability [1, 4]: 180.529%
Cell Viability [1, 5]: 81.0914%
Cell Viability [2, 4]: 95.5116%
Cell Viability [2, 5]: 75.9837%
Cell Viability [3, 4]: 93.6384%
Cell Viability [3, 5]: 92.3898%

Cc1cc2c(cc1N1C(=O)c3cccc4c(CCCO)ccc(c34)C1=O)n(C)c(=O)n2C
Cell Viability [1, 4]: 35.202%
Cell Viability [1, 5]: 231.762%
Cell Viability [2, 4]: 52.1608%
Cell Viability [2, 5]: 93.143%
Cell Viability [3, 4]: 83.3962%
Cell Viability [3, 5]: 164.269%

CN1CCN(Cc2ccc(Nc3ncc(Cl)c(Nc4ccccc4S(=O)(=O)N(C)C)n3)cc2)CC1 [DUBERMATINIB]
Cell Viability [1, 4]: 1.051%
Cell Viability [1, 5]: 16.1981%
Cell Viability [2, 4]: 1%
Cell Viability [2, 5]: 1.414%
Cell Viability [3, 4]: 0.5937%
Cell Viability [3, 5]: 0.7151%

CN(C)[C@@H]1CCN(c2cc(-c3ccccc3)nc3ccnn23)C1 [(R)-ZINC-3573]
Cell Viability [1, 4]: 97.984%
Cell Viability [1, 5]: 99.7993%
Cell Viability [2, 4]: 83.9602%
Cell Viability [2, 5]: 82.5117%
Cell Viability [3, 4]: 122.992%
Cell Viability [3, 5]: 121.371%

CN1CCN(c2cnc3c(C4CCN(C(=O)c5ccc(OC(F)(F)F)cc5N)CC4)ncnc3c2)CC1 [BAY-885]
Cell Viability [1, 4]: 78.4575%
Cell Viability [1, 5]: 141.163%
Cell Viability [2, 4]: 91.6174%
Cell Viability [2, 5]: 96.8328%
Cell Viability [3, 4]: 128.922%
Cell Viability [3, 5]: 132.533%

c1ccc(C2CCN(c3cnc4c(N5CCOCC5)nccn34)CC2)cc1
Cell Viability [1, 4]: 90.2822%
Cell Viability [1, 5]: 108.246%
Cell Viability [2, 4]: 130.379%
Cell Viability [2, 5]: 77.7891%
Cell Viability [3, 4]: 25.484%
Cell Viability [3, 5]: 144.176%

O=C(Nc1cccnn1)N1CCC(=Cc2cccc(Oc3ccc(C(F)(F)F)cn3)c2)CC1
Cell Viability [1, 4]: 75.4997%
Cell Viability [1, 5]: 114.419%
Cell Viability [2, 4]: 96.3845%
Cell Viability [2, 5]: 120.944%
Cell Viability [3, 4]: 103.919%
Cell Viability [3, 5]: 125.543%

Cc1nc(NC(=O)N2CCC[C@H]2C(N)=O)sc1-c1ccnc(C(C)(C)C(F)(F)F)c1 [ALPELISIB]
Cell Viability [1, 4]: 70.8375%
Cell Viability [1, 5]: 99.8659%
Cell Viability [2, 4]: 47.6603%
Cell Viability [2, 5]: 61.6268%
Cell Viability [3, 4]: 74.6278%
Cell Viability [3, 5]: 68.5217%

CC(=O)N1CCC(c2ccc(C(=O)NC(=N)N)cc2C(F)(F)F)CC1 [BI 9627]
Cell Viability [1, 4]: 96.0735%
Cell Viability [1, 5]: 101.417%
Cell Viability [2, 4]: 100.11%
Cell Viability [2, 5]: 107.329%
Cell Viability [3, 4]: 118.657%
Cell Viability [3, 5]: 157.583%

CC(=O)Nc1c(C(C)=O)c(=O)n(C)c2nc(-c3ccc(Cl)cc3Cl)c(-c3ccc(Cl)cc3)cc12 [NAPHTHYRIDINONE]
Cell Viability [1, 4]: 105.882%
Cell Viability [1, 5]: 98.6055%
Cell Viability [2, 4]: 155.496%
Cell Viability [2, 5]: 107.032%
Cell Viability [3, 4]: 72.6588%
Cell Viability [3, 5]: 141.036%

Cc1cccc(-c2cnc3occ(-c4ccc(C(=O)O)c(C5CCCC5)c4)c3c2)c1
Cell Viability [1, 4]: 88.6258%
Cell Viability [1, 5]: 133.429%
Cell Viability [2, 4]: 146.067%
Cell Viability [2, 5]: 87.0815%
Cell Viability [3, 4]: 94.5335%
Cell Viability [3, 5]: 126.561%

COc1cc(C)c(Sc2cnc(NC(=O)c3ccc(CNC(C)C(C)(C)C)cc3)s2)cc1C(=O)N1CCN(C(C)=O)CC1 (centres undefined)
Cell Viability [1, 4]: 91.6907%
Cell Viability [1, 5]: 97.5626%
Cell Viability [2, 4]: 52.0168%
Cell Viability [2, 5]: 58.5352%
Cell Viability [3, 4]: 97.8632%
Cell Viability [3, 5]: 73.4932%

From ChEMBL document CHEMBL5608141, “Identification of compartment-specific drug sensitivities in CRC organoid-stroma co-cultures” (2024)
